In general, EC50 refers to the concentration that produces a half-maximal response.

The text below walks through data of ChEMBL document CHEMBL3886292, “Functionally selective ligands of dopamine D2 receptors” (2015).

Assay [1] deals with T1, D(2) dopamine receptor (Homo sapiens, UniProt P14416). Kind of assay: Beta-Arrestin Recruitment (Tango) Assay: Recruitment of β-arrestin to agonist-stimulated D2 receptors was performed using a previously described Tango-type assay (Barnea et al., Proc. Natl. Acad. Sci. USA 105:64 (2008)). Briefly, HTLA cells stably expressing β-arrestin-TEV protease and a tetracycline transactivator-driven luciferase were plated in 15-cm dishes in DMEM containing 10% fetal bovine serum and transfected (via calcium phosphate) with 20 μg of a D2V2-TCS-tTA construct (Barnea et al., Proc. Natl. Acad. Sci. USA 105:64 (2008)). The next day, cells were plated in white, clear-bottom, 384-well plates (Greiner, 10,000 cells/well, 50 μl/well) in DMEM containing 1% dialyzed fetal bovine serum. The following day, the cells were challenged with 10 μl/well of reference agonist (6 μM) or D2 test ligand (6 μM)±reference agonist prepared in HBS, 20 mM HEPES, pH 7.4, 18% DMSO (final ligand concentrations were 1 μM, final DMSO concentration was 3%). The class given is functional, cell-based. A general note: Arrestin recruitment assays detect the binding of arrestin to an activated receptor.
T1 sequence (P14416 whole entry): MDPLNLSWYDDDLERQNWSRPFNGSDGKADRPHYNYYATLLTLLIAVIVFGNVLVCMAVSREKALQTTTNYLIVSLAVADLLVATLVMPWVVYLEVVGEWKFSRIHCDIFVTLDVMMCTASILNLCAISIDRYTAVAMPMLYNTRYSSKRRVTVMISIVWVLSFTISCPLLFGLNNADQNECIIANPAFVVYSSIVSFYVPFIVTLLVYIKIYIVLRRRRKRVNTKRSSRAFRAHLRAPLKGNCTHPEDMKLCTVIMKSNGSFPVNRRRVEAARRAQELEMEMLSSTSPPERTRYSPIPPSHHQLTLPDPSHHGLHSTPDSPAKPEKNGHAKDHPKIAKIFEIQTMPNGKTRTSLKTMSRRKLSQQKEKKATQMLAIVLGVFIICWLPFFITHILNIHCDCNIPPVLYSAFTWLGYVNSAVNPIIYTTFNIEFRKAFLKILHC

Assay [2] concerns the target T1, D(2) dopamine receptor. Kind of assay: cAMP GloSensor Assay: HEK293T cells co-expressing the cAMP biosensor GloSensor-22F (Promega) and hD2 receptors were seeded (10,000 cells/20 ul/well) into white, clear-bottom, tissue culture plates in HBSS, 10% FBS, 20 mM HEPES, pH 7.4. After a one- to two-hour recovery, cells were treated with 10 ul of 3x test or reference drug prepared in HBSS, 10% FBS, 20 mM HEPES, pH 7.4. After 30 minutes, cells were challenged with 10 ul of 1,200 nM (4x) isoproterenol in 8% (4x) GloSensor reagent. Luminescence per well per second was read on a Wallac TriLux microbeta plate counter. Data were normalized to the isoproterenol response (100%) and the maximal quinpirole-induced inhibition thereof (0%) and regressed using the sigmoidal dose-response function built into GraphPad Prism 4.0. The class given is functional, cell-based, HEK-293T.

SMILES strings stand for the structures.

`COc1ccccc1N1CCCN(CCCCOc2ccc3c(n2)NC(=O)CC3)CC1`: the EC50 was found to be 6.1 nM in assay [1] and 222 nM in assay [2].
